For data set [1], the system named is mechanically induced pain. The data set can be described thus: effect on mechanically induced pain, tail clamp method (HAFFNER). It counts as in vivo. As to conditions: Mus musculus, po, 0.5 h, male mice, oesophageal tube, 1% methylcellulose, 30 minute intervals, read-out: ED^50 (percentage of animals which showed no pain-reaction).
Data set [2] relates to heat-induced pain in mice. As to the kind of experiment: effect on heat-induced pain in mice (CHEN and BECKMAN). It counts as in vivo. As to conditions: Mus musculus, po; male mice, oesophageal tube, 1% methylcellulose; read-out: ED^100 (dosage which doubled the reaction time). As for the experimental part:
2. The effect on heat-induced pain in mice was investigated using the method of CHEN and BECKMAN (Science 113, 631 (1951). Male mice with an average weight of 20 g were given the test substances as a trituration in 1% methylcellulose (0.1 ml/10 g of animal by oesophageal tube. From the lengthening of the individual reaction time observed after various doses, the ED^100 was calculated by linear regression analysis as the dosage which doubled the reaction time.

A short description of data set [3]: acute toxicity in rats. Conditions: in vivo, po; rat, both sexes, oesophageal tube, death within 14 days. As for the experimental part: (§1) 5. The acute toxicity was determined in mice or rats of both sexes with an average weight of 20 g. The test substances were administered by oesophageal tube as a trituration in 1% methylcellulose (0.2 ml/10 g of animal). Wherever possible the LD50 was calculated according to LITCHFIELD and WILCOXON (J. Pharmacol. exp. Therap. 96, 99 (1949)) from the percentage of animals which died within 14 days after receiving various doses.

Data set [4] relates to pain of inflammation in rats. The data set can be described thus: effect on the pain of inflammation in rats (RANDALL and SELITTO). As to conditions: sc, male rats, oesophageal tube, 1% methylcellulose, after subcutaneous yeast. It counts as in vivo, rat. As to the method:
1. The effect on the pain of inflammation in rats was tested using the method of RANDALL and SELITTO (Arch. int. Pharmacodyn. 111, 409 (1957)). The test substances were administered to male rats weighing between 100 and 130 g as a trituration in 1% methylcellulose (1.0 ml/100 g of animal) 90 or 135 minutes after subcutaneous administration of yeast by oesophageal tube. From the pain threshold measured 90 or 45 minutes after administration of the various doses, the ED^50 was determined by linear regression analysis as the dosage which raised the pain threshold by 50%. The following

Data set [5] deals with body temperature of normothermic rats. The data set can be described thus: effect on body temperature of normothermic rats. Conditions: Rattus norvegicus, po, oesophageal tube, 1% methylcellulose, rectal temperature, read-out: ED^-1.5° C. (dosage which lowered the body temperature by 1.5° C.). It counts as in vivo. As to the method:
4. The effect on body temperature was investigated on normothermic rats weighing between 120 and 140 g. The test substances were administered by oesophageal tube as a trituration in 1% methylcellulose (1.0 ml/100 g of animal). From the lowering of rectal temperature observed after various dosages, the ED^-1.5° C. was calculated by linear regression analysis as the dosage which lowered the body temperature by 1.5° C.

Data set [6] is described as follows: acute toxicity in mice. As to conditions: in vivo, po; mouse, both sexes, oesophageal tube, death within 14 days; read-out: LD^50 Mouse. As to the method:
as §1

[7] abbreviates: 0.75 h, pain threshold 45 minutes after administration, read-out: ED^50 after 45 minutes (dosage which raised the pain threshold by 50%).
Where [8] appears, read: 1.5 h, pain threshold 90 minutes after administration, read-out: ED^50 after 90 minutes (dosage which raised the pain threshold by 50%).

Where two headings read alike, the source gives them in different places.

For `Cc1cc(=O)[nH]c2c1C(=O)CCC2` [Substance D, 4-methyl-7,8-dihydro-2,5(1H,6H)-quinolinedione], the ED50 in data set [1] was 129 mg/kg; in data set [4] (setting [7]) it was 21 mg/kg; in data set [4] (setting [8]) it was 34 mg/kg. In data set [2], the ED100 amounted to 98 mg/kg. For the same compound, the LD50 at 336 h in data set [3] stood at 1370 mg/kg. The ED (-1.5 degC) in data set [5] turned out to be 25 mg/kg.

With `CCN1C(=O)CCC2=C1CCCC2=O` [Substance I, 1-ethyl-3,4,7,8-tetrahydro-2,5(1H,6H)-quinolinedione], the ED50 came to 55 mg/kg in data set [1], 13 mg/kg in data set [4] (setting [7]) and 16 mg/kg in data set [4] (setting [8]). Further, in data set [2], the ED100 is 70 mg/kg. The ED (-1.5 degC) in data set [5] is 22 mg/kg.

As for `CCCCn1c2c(c(C)cc1=O)C(=O)CCC2` [Substance H, 1-n-butyl-4-methyl-7,8-dihydro-2,5(1H,6H)-quinolinedione], the values for the ED50 in data set [1] and in data set [4] (setting [8]) were 50 mg/kg and 19.1 mg/kg, respectively. For the same compound, in data set [2], the ED100 worked out at 101 mg/kg. Also, the ED (-1.5 degC) in data set [5] was determined as 36 mg/kg.

For `CN1C(=O)CCC2=C1CCCC2=O` [Substance C, 1-methyl-3,4,7,8-tetrahydro-2,5(1H,6H)-quinolinedione], the ED50 in data set [1] was found to be 129 mg/kg; in data set [4] (setting [7]), 15 mg/kg; in data set [4] (setting [8]), 21 mg/kg. Further, the ED100 in data set [2] was found to be 99 mg/kg. Further, the LD50 at 336 h in data set [3] was 748 mg/kg; in data set [6] it was 985 mg/kg. For the same compound, the ED (-1.5 degC) in data set [5] is 26 mg/kg.

As to `Cn1c2c(ccc1=O)C(=O)CCC2` [Substance A, 1-methyl-7,8-dihydro-2,5(1H,6H)-quinolinedione], the ED50 in data set [1] is 80 mg/kg; in data set [4] (setting [7]), 8.7 mg/kg; in data set [4] (setting [8]) it was 8.1 mg/kg. For the same compound, in data set [2], the ED100 was determined as 71 mg/kg. Further, the figures for the LD50 at 336 h in data set [3] and in data set [6] were 489 mg/kg and 767 mg/kg, respectively. For the same compound, in data set [5], the ED (-1.5 degC) worked out at 29 mg/kg.

Consider `Cc1cc2c([nH]c1=O)CCCC2=O` [Substance E, 3-methyl-7,8-dihydro-2,5(1H,6H)-quinolinedione], for which the figures for the ED50 in data set [1], in data set [4] (setting [7]) and in data set [4] (setting [8]) were 102 mg/kg, 31 mg/kg and 36 mg/kg, respectively. In addition, the ED100 in data set [2] worked out at 135 mg/kg. In data set [6], the LD50 at 336 h is 825 mg/kg. Also, the ED (-1.5 degC) in data set [5] stood at 34 mg/kg.

With `CCn1c2c(c(C)cc1=O)C(=O)CCC2` [Substance G, 1-ethyl-4-methyl-7,8-dihydro-2,5(1H,6H)-quinolinedione], the ED50 in data set [1] was 26 mg/kg; in data set [4] (setting [7]) it was 5.1 mg/kg; in data set [4] (setting [8]), 5.9 mg/kg. In data set [2], the ED100 worked out at 59 mg/kg. Moreover, in data set [5], the ED (-1.5 degC) was 11 mg/kg.

As for `Cc1cc2c(n(C)c1=O)CCCC2=O` [Substance F, 1,3-dimethyl-7,8-dihydro-2,5(1H,6H)-quinolinedione], the ED50 in data set [1] was 86 mg/kg; in data set [4] (setting [7]) it was 12.5 mg/kg; in data set [4] (setting [8]) it was 12.1 mg/kg. Besides, the ED100 in data set [2] worked out at 109 mg/kg. Also, the LD50 at 336 h turned out to be 396 mg/kg in data set [3] and 296 mg/kg in data set [6]. Further, the ED (-1.5 degC) in data set [5] was 36 mg/kg.

In the case of `CC1CC2=C(CCCC2=O)NC1=O` (stereo not drawn) [Substance B, 3-methyl-3,4,7,8-tetrahydro-2,5(1H,6H)-quinolinedione], the figures for the ED50 in data set [1], in data set [4] (setting [7]) and in data set [4] (setting [8]) were 100 mg/kg, 37 mg/kg and 39 mg/kg, respectively. Further, in data set [2], the ED100 was 155 mg/kg. For the same compound, the figures for the LD50 at 336 h in data set [3] and in data set [6] were 659 mg/kg and 1220 mg/kg, respectively. For the same compound, the ED (-1.5 degC) in data set [5] was 35 mg/kg.

Values taken from patent US5068334A, “Pharmaceutical compositions containing quinolin-2,5-diones, new quinolin-2,5-diones and processes for the preparation thereof” (Karl Thomae GmbH, priority 1988, dated 1991).
